Test results as given in patent publication US8809583B2, “Methods for producing isomers of muconic acid and muconate salts” (Amyris, Inc., priority 2010, dated 2014).

What was measured:
Type in all cases: physicochemical
[1] = Solubility of muconic acid isomers in organic solvents
[2] = Solvent extraction of slurry of cis,trans-muconic acid in M9 salts (simulated broth) acidified to pH 3.0, precipitate left in; conditions: 63.34 g/L incl. precipitate
Description: (§1) To individual 50 mL conical centrifuge tubes each containing 15 mL of the filtered broth were added 15 mL of each solvent listed in tables below. Each tube was agitated for two minutes and the organic and aqueous phases allowed to separate. The aqueous layer was separated from the solvent layer by pipette and placed into a new 50 mL conical tube. Both the aqueous and solvent phases of each extraction were analyzed for muconic acid using HPLC. A second extraction was performed on each of the separated aqueous layers using fresh solvent. Again the samples were agitated, allowed to settle and the aqueous and organic phases were separated and analyzed.
To test the ability of solvent extraction to recover cis,trans-muconic acid after acidification to sufficiently low levels that significant amounts of the cis,trans-muconic acid has precipitated, a solution of cis,trans-muconic acid in a solution of M9 salts was used to simulate a fermentation broth. 15 grams of cis,trans-muconic acid were added to 250 mL of M9 salts giving an approximate titer of 60 g/L. This was achieved by raising the pH to 7.0 using sodium hydroxide. The broth was then acidified with sulfuric acid to pH 3.0 causing the cis,trans-muconic acid to precipitate. The solid precipitate was left in the acidified mixture, and the entire slurry was extracted twice with solvent as described above.

[3] = Solvent extraction of cis,trans-muconic acid from acidified, filtered fermentation broth (HPLC of both phases); conditions: pH about 3
Description: Fermentation broth was obtained that had been isomerized to cis,trans-muconic acid, and was acidified to a pH of about 3. The solid cis,trans-muconic acid was removed by filtration to leave acidified fermentation broth containing approximately 5 to 10 grams per Liter of cis,trans-muconic acid.
as §1
Different broth samples with different amounts of cis,trans-muconic acid were used to generate the results in each table.

[4] = Precipitation of cis,trans-muconate from clarified broth at different pH values
Description: Following isomerization (e.g., as in Example 8), broth containing cis,trans-muconic acid was cooled to approximately ambient temperature and the cells, cell debris and precipitated solids were removed from the culture broth by centrifugation. Alternatively, such solids can be removed by filtration (e.g., through a 100 kD SARTOCON® Slice cassette). The cell-free broth was then clarified by filtration (e.g., through a 10 kD SARTOCON® Slice cassette), to remove proteins. […]

[5] = broth 4.86 g/L, cyclohexanone, first line (extraction number not given)
[6] = broth 4.86 g/L, cyclohexanone, second line (extraction number not given)
[7] = broth 4.86 g/L, ethyl hexanol, first line (extraction number not given)
[8] = broth 4.86 g/L, ethyl hexanol, second line (extraction number not given)
[9] = broth 4.86 g/L, isoalcohol, first line (extraction number not given)
[10] = broth 4.86 g/L, isoalcohol, second line (extraction number not given)
[11] = broth 4.86 g/L, xylene, first line (extraction number not given)
[12] = broth 4.86 g/L, xylene, second line (extraction number not given)
[13] = broth 9.82 g/L, 1-butanol, extraction 1
[14] = broth 9.82 g/L, 1-butanol, extraction 2
[15] = broth 9.82 g/L, Octanol, extraction 1
[16] = broth 9.82 g/L, Octanol, extraction 2
[17] = broth 9.82 g/L, tBME, extraction 1
[18] = broth 9.82 g/L, tBME, extraction 2
[19] = broth 10.69 g/L, 1-pentanol, extraction 1
[20] = broth 10.69 g/L, 1-pentanol, extraction 2
[21] = broth 10.69 g/L, MEK, extraction 1
[22] = broth 10.69 g/L, MEK, extraction 2
[23] = broth 10.69 g/L, MeTHF, extraction 1
[24] = broth 10.69 g/L, MeTHF, extraction 2
[25] = broth 10.69 g/L, cyclohexane, extraction 1
[26] = broth 10.69 g/L, cyclohexane, extraction 2
[27] = broth 10.69 g/L, cylcohexanol, extraction 1
[28] = broth 10.69 g/L, cylcohexanol, extraction 2
[29] = broth 10.69 g/L, decalin, extraction 1
[30] = broth 10.69 g/L, decalin, extraction 2
[31] = broth 10.69 g/L, n-butyl acetate, extraction 1
[32] = broth 10.69 g/L, n-butyl acetate, extraction 2

## O=C(O)/C=C\C=C\C(=O)O [cis,trans-muconic acid]
[1]
  solubility in organic solvents compared with the other isomers: more soluble in organic solvents than either of the cis,cis or trans,trans isomers
[2]; MeTHF, extraction 1
  Muconic acid in aqueous phase: 2.03 g/L
  Muconic acid in organic phase: 47.10 g/L
  Partition coefficient: 23.20
[2]; MeTHF, extraction 2
  Muconic acid in aqueous phase: 0.11 g/L
  Muconic acid in organic phase: 1.64 g/L
  Partition coefficient: 14.91
[2]; cyclohexanol, extraction 1
  Muconic acid in aqueous phase: 10.53 g/L
  Muconic acid in organic phase: 51.37 g/L
  Partition coefficient: 4.88
[2]; cyclohexanol, extraction 2
  Muconic acid in aqueous phase: 2.71 g/L
  Muconic acid in organic phase: 3.75 g/L
  Partition coefficient: 1.38
[2]; cyclohexanone, extraction 1
  Muconic acid in aqueous phase: 2.92 g/L
  Muconic acid in organic phase: 51.05 g/L
  Partition coefficient: 17.48
[2]; cylcohexanone, extraction 2
  Muconic acid in aqueous phase: 0.20 g/L
  Muconic acid in organic phase: 2.10 g/L
  Partition coefficient: 10.50
[2]; tBME, extraction 1
  Muconic acid in aqueous phase: 54.00 g/L
  Muconic acid in organic phase: 0.00 g/L
  Partition coefficient: 0.00
[2]; tBME, extraction 2
  Muconic acid in aqueous phase: 59.88 g/L
  Muconic acid in organic phase: 0.00 g/L
  Partition coefficient: 0.00
[3]; [5]
  Muconic acid in aqueous phase: 0.21 g/L
  Muconic acid in organic phase: 6.11 g/L
  Partition coefficient: 29.10
[3]; [6]
  Muconic acid in aqueous phase: 0.23 g/L
  Muconic acid in organic phase: 0.00 g/L
  Partition coefficient: large
[3]; [7]
  Muconic acid in aqueous phase: 0.89 g/L
  Muconic acid in organic phase: 3.83 g/L
  Partition coefficient: 4.30
[3]; [8]
  Muconic acid in aqueous phase: 0.20 g/L
  Muconic acid in organic phase: 0.79 g/L
  Partition coefficient: 3.95
[3]; [9]
  Muconic acid in aqueous phase: 0.63 g/L
  Muconic acid in organic phase: 4.87 g/L
  Partition coefficient: 7.73
[3]; [10]
  Muconic acid in aqueous phase: 0.04 g/L
  Muconic acid in organic phase: 0.49 g/L
  Partition coefficient: 12.25
[3]; [11]
  Muconic acid in aqueous phase: 5.15 g/L
  Muconic acid in organic phase: 0.00 g/L
  Partition coefficient: 0.00
[3]; [12]
  Muconic acid in aqueous phase: 4.82 g/L
  Muconic acid in organic phase: 0.00 g/L
  Partition coefficient: 0.00
[3]; [13]
  Muconic acid in aqueous phase: 1.10 g/L
  Muconic acid in organic phase: 6.26 g/L
  Partition coefficient: 5.69
[3]; [14]
  Muconic acid in aqueous phase: 0.27 g/L
  Muconic acid in organic phase: 0.51 g/L
  Partition coefficient: 1.89
[3]; [15]
  Muconic acid in aqueous phase: 2.19 g/L
  Muconic acid in organic phase: 5.40 g/L
  Partition coefficient: 2.47
[3]; [16]
  Muconic acid in aqueous phase: 1.52 g/L
  Muconic acid in organic phase: 0.53 g/L
  Partition coefficient: 0.35
[3]; [17]
  Muconic acid in aqueous phase: 2.05 g/L
  Muconic acid in organic phase: 6.53 g/L
  Partition coefficient: 3.19
[3]; [18]
  Muconic acid in aqueous phase: 0.72 g/L
  Muconic acid in organic phase: 1.23 g/L
  Partition coefficient: 1.71
[3]; [19]
  Muconic acid in aqueous phase: 1.29 g/L
  Muconic acid in organic phase: 8.29 g/L
  Partition coefficient: 6.43
[3]; [20]
  Muconic acid in aqueous phase: 0.30 g/L
  Muconic acid in organic phase: 1.06 g/L
  Partition coefficient: 3.53
[3]; [21]
  Muconic acid in aqueous phase: 2.63 g/L
  Muconic acid in organic phase: 9.65 g/L
  Partition coefficient: 3.67
[3]; [22]
  Muconic acid in aqueous phase: 0.84 g/L
  Muconic acid in organic phase: 1.99 g/L
  Partition coefficient: 2.37
[3]; [23]
  Muconic acid in aqueous phase: 0.65 g/L
  Muconic acid in organic phase: 7.40 g/L
  Partition coefficient: 11.38
[3]; [24]
  Muconic acid in aqueous phase: 0.00 g/L
  Muconic acid in organic phase: 0.51 g/L
  Partition coefficient: large
[3]; [25]
  Muconic acid in aqueous phase: 10.47 g/L
  Muconic acid in organic phase: 0.00 g/L
  Partition coefficient: 0.00
[3]; [26]
  Muconic acid in aqueous phase: 10.20 g/L
  Muconic acid in organic phase: 0.00 g/L
  Partition coefficient: 0.00
[3]; [27]
  Muconic acid in aqueous phase: 0.98 g/L
  Muconic acid in organic phase: 8.62 g/L
  Partition coefficient: 8.80
[3]; [28]
  Muconic acid in aqueous phase: 0.28 g/L
  Muconic acid in organic phase: 1.05 g/L
  Partition coefficient: 3.75
[3]; [29]
  Muconic acid in aqueous phase: 10.25 g/L
  Muconic acid in organic phase: 0.00 g/L
  Partition coefficient: 0.00
[3]; [30]
  Muconic acid in aqueous phase: 12.99 g/L
  Muconic acid in organic phase: 0.00 g/L
  Partition coefficient: 0.00
[3]; [31]
  Muconic acid in aqueous phase: 3.96 g/L
  Muconic acid in organic phase: 6.78 g/L
  Partition coefficient: 1.71
[3]; [32]
  Muconic acid in aqueous phase: 2.02 g/L
  Muconic acid in organic phase: 3.55 g/L
  Partition coefficient: 1.76
[4]; pH 2.0
  % ctMA in filtrate: 18 weight %
[4]; pH 2.5
  % ctMA in filtrate: 18 weight %
  ctMA in precipitate: 64 weight %
[4]; pH 3.0
  % ctMA in filtrate: 22 weight %
  ctMA in precipitate: 61 weight %
[4]; pH 3, Table 2
  cis,trans-muconic acid originally in the solution that precipitates: about 60%
  cis,trans-muconic acid remaining in solution: approximately 40%
[4]; pH 3.5
  % ctMA in filtrate: 26 weight %
  ctMA in precipitate: 58 weight %
[4]; pH 4.0
  % ctMA in filtrate: 75 weight %
  ctMA in precipitate: 22 weight %
[4]; pH 4.7
  % ctMA in filtrate: 100 weight %
  ctMA in precipitate: 0 weight %
